Biological target: T1, GLP-1 Receptor (Homo sapiens, UniProt P43220)
T1 construct: host or cells: HEK293/GLP1R/CRE-LUC (HEK293/CRE-Luc stably expressing the GLP-1 receptor)
Test: GLP-1R agonist cAMP stimulation assay (HEK293/GLP1R/CRE-LUC cells, Cisbio cAMP dynamic 2 kit);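 also: compounds tested in half-log serial dilution, cAMP detected with cAMP-d2 and anti-cAMP cryptate antibody reagents after 1 h at room temperature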
Assay type: cell-based
Conditions: HEK293/CRE-Luc cell line stably expressing the GLP-1 Receptor; 1000 cells/well; 30 min at 37° C.; 0.5 mM IBMX, 0.1% BSA; read-out: GLP1R cAMP Stimulation DR: EC50

T1 sequence (P43220 24-463, species assumed): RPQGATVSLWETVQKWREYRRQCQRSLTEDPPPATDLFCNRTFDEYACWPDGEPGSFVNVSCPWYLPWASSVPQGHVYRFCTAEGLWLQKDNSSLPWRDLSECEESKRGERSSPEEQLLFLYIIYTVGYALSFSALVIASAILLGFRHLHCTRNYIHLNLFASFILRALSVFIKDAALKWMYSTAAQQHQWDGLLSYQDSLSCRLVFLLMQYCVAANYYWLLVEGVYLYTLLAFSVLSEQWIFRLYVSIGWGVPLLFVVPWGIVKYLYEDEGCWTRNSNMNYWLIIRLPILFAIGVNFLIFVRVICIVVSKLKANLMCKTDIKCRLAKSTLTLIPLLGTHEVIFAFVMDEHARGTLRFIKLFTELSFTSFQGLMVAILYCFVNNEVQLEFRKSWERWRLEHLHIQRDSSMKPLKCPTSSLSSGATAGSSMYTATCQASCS

Row | EC50 | Structure (SMILES)
1 | 0.45 nM | CC1(c2ccc(Cl)cc2F)Oc2cccc(C3CCN(Cc4ncc(CCC(=O)O)n4C[C@@H]4CCO4)CC3)c2O1 (stereo partly drawn) [Compound 239, 3-(2-((4-(2-(4-chloro-2-fluorophenyl)-2-methylbenzo[d][1,3]dioxol-4-yl)piperidin-1-yl)methyl)-1-(((S)-oxetan-2-yl)methyl)-1H-imidazol-5-yl)propanoic acid]
2 | 4.7 nM | CC1(c2ccc(Cl)cc2F)Oc2cccc(C3CCN(Cc4ncc(-c5nnc(C(F)(F)F)[nH]5)cc4CCS(C)(=O)=O)CC3)c2O1 (centres unmarked) [Compound 267, 2-({4-[2-(4-chloro-2-fluorophenyl)-2-methyl-2H-1,3-benzodioxol-4-yl]piperidin-1-yl}methyl)-3-(2-methanesulfonylethyl)-5-[5-(trifluoromethyl)-4H-1,2,4-triazol-3-yl]pyridine]
3 | 5.4 nM | C/C(=C\c1cnc(CN2CCC(c3cccc4c3O[C@@H](c3ccc(Cl)cc3)O4)CC2)n1C[C@@H]1CCO1)C(=O)O [Compound 133a, (E)-3-(2-((4-((S)-2-(4-chlorophenyl)benzo[d][1,3]dioxol-4-yl)piperidin-1-yl)methyl)-1-(((S)-oxetan-2-yl)methyl)-1H-imidazol-5-yl)-2-methylacrylic acid]
4 | 1.6 nM | Cn1c(-c2cc(=O)[nH]o2)cnc1CN1CCC(c2cccc(OCc3ccc(Cl)cc3F)n2)CC1 [Compound 250, 5-(2-((4-(6-((4-chloro-2-fluorobenzyl)oxy)pyridin-2-yl)piperidin-1-yl)methyl)-1-methyl-1H-imidazol-5-yl)isoxazol-3(2H)-one]
5 | 0.09 nM | CC1(c2ccc(Cl)cc2F)Oc2cccc(C3CCN(Cc4ncc(/C=C/C(=O)O)n4C[C@@H]4CCCO4)CC3)c2O1 (stereo partly drawn) [Compound 140a, (E)-3-(2-((4-(2-(4-chloro-2-fluorophenyl)-2-methylbenzo[d][1,3]dioxol-4-yl)piperidin-1-yl)methyl)-1-(((S)-tetrahydrofuran-2-yl)methyl)-1H-imidazol-5-yl)acrylic acid]
6 | 0.0059 nM | CCn1cncc1Cn1c(CCC(=O)O)cnc1CN1CCC(c2cccc3c2OC(C)(c2ccc(Cl)cc2F)O3)CC1 (centres unmarked) [Compound 143, 3-(2-((4-(2-(4-chloro-2-fluorophenyl)-2-methylbenzo[d][1,3]dioxol-4-yl)piperidin-1-yl)methyl)-1-((1-ethyl-1H-imidazol-5-yl)methyl)-1H-imidazol-5-yl)propanoic acid]
7 | 0.015 nM | C[C@H](Cn1c(/C=C/C(=O)O)cnc1CN1CCC(c2cccc3c2O[C@@](C)(c2ccc(Cl)cc2F)O3)CC1)OC(F)F [Compound 169b, (E)-3-(2-((4-((S)-2-(4-chloro-2-fluorophenyl)-2-methylbenzo[d][1,3]dioxol-4-yl)piperidin-1-yl)methyl)-1-((R)-2-(difluoromethoxy)propyl)-1H-imidazol-5-yl)acrylic acid]
8 | 0.11 nM | CCn1cncc1Cn1c(/C=C(\C)C(=O)O)cnc1CN1CCC(c2cccc(OCc3ccc(Cl)cn3)n2)CC1 [Compound 220, (E)-3-(2-((4-(6-((5-chloropyridin-2-yl)methoxy)pyridin-2-yl)piperidin-1-yl)methyl)-1-((1-ethyl-1H-imidazol-5-yl)methyl)-1H-imidazol-5-yl)-2-methylacrylic acid]
9 | 0.045 nM | Cc1ncccc1Cn1c(/C=C/C(=O)O)cnc1CN1CCC(c2cccc3c2OC(C)(c2ccc(Cl)cc2F)O3)CC1 (centres unmarked) [Compound 147, (E)-3-(2-((4-(2-(4-chloro-2-fluorophenyl)-2-methylbenzo[d][1,3]dioxol-4-yl)piperidin-1-yl)methyl)-1-((2-methylpyridin-3-yl)methyl)-1H-imidazol-5-yl)acrylic acid]
10 | 0.0014 nM | C[C@]1(c2ccc(Cl)cc2F)Oc2cccc(C3CCN(Cc4ncc(/C=C/C(=O)O)n4C[C@H]4CCS4(=O)=O)CC3)c2O1 (single isomer, unassigned) [Compound 173b]
11 | 0.18 nM | CC1(c2ccc(Cl)cc2F)Oc2cccc(C3CCN(Cc4ncc(/C=C/C(=O)O)n4CCS(C)(=O)=O)CC3)c2O1 (centres unmarked) [Compound 161, (E)-3-(2-((4-(2-(4-chloro-2-fluorophenyl)-2-methylbenzo[d][1,3]dioxol-4-yl)piperidin-1-yl)methyl)-1-(2-(methylsulfonyl)ethyl)-1H-imidazol-5-yl)acrylic acid]
12 | 8.3 nM | Cc1cc(-c2nnc(C(F)(F)F)[nH]2)cnc1CN1CCC(c2cccc3c2OC(C)(c2ccc(Cl)cc2F)O3)CC1 (centres unmarked) [Compound 255, 2-({4-[2-(4-chloro-2-fluorophenyl)-2-methyl-2H-1,3-benzodioxol-4-yl]piperidin-1-yl}methyl)-3-methyl-5-[5-(trifluoromethyl)-4H-1,2,4-triazol-3-yl]pyridine]
13 | 1.2 nM | CC1(c2ccc(Cl)cc2F)Oc2cccc(C3CCN(Cc4ncc(/C=C/C(=O)O)n4C4CC(O)C4)CC3)c2O1 (centres unmarked) [Compound 178, (E)-3-(2-((4-(2-(4-chloro-2-fluorophenyl)-2-methylbenzo[d][1,3]dioxol-4-yl)piperidin-1-yl)methyl)-1-(3-hydroxycyclobutyl)-1H-imidazol-5-yl)acrylic acid]
14 | 0.24 nM | CCc1ncoc1Cn1c(/C=C/C(=O)O)cnc1CN1CCC(c2cccc3c2OC(C)(c2ccc(Cl)cc2F)O3)CC1 (centres unmarked) [Compound 184, (E)-3-(2-((4-(2-(4-chloro-2-fluorophenyl)-2-methylbenzo[d][1,3]dioxol-4-yl)piperidin-1-yl)methyl)-1-((4-ethyloxazol-5-yl)methyl)-1H-imidazol-5-yl)acrylic acid]
15 | 3.2 nM | C/C(=C\c1cnc(CN2CCC(c3cccc4c3OC[C@@H](c3ccc(Cl)cc3)O4)CC2)n1C[C@@H]1CCO1)C(=O)O [Compound 115a, (E)-3-(2-((4-((R)-2-(4-chlorophenyl)-2,3-dihydrobenzo[b][1,4]dioxin-5-yl)piperidin-1-yl)methyl)-1-(((S)-oxetan-2-yl)methyl)-1H-imidazol-5-yl)-2-methylacrylic acid]
16 | > 1000 nM | CC(C)(Oc1ccc(CN2CCC(c3cccc(OCc4ccc(Cl)cc4F)n3)CC2)nc1)C(=O)O [Compound 122, 2-((6-((4-(6-((4-chloro-2-fluorobenzyl)oxy)pyridin-2-yl)piperidin-1-yl)methyl)pyridin-3-yl)oxy)-2-methylpropanoic acid]
17 | 0.16 nM | C[C@]1(c2ccc(Cl)cc2F)Oc2cccc(C3CCN(Cc4ncc(/C=C/C(=O)O)n4CCOC(F)(F)F)CC3)c2O1 [Compound 145, (S,E)-3-(2-((4-(2-(4-chloro-2-fluorophenyl)-2-methylbenzo[d][1,3]dioxol-4-yl)piperidin-1-yl)methyl)-1-(2-(trifluoromethoxy)ethyl)-1H-imidazol-5-yl)acrylic acid]
18 | 5.3 nM | COCCc1cc(-c2nnc(C(F)(F)F)[nH]2)cnc1CN1CCC(c2cccc3c2OC(C)(c2ccc(Cl)cc2)O3)CC1 (centres unmarked) [Compound 261, 2-({4-[2-(4-chlorophenyl)-2-methyl-2H-1,3-benzodioxol-4-yl]piperidin-1-yl}methyl)-3-(2-methoxyethyl)-5-[5-(trifluoromethyl)-4H-1,2,4-triazol-3-yl]pyridine]
19 | 0.53 nM | COCCc1cc(-c2nnc(C(F)(F)F)[nH]2)cnc1CN1CCC(c2cccc3c2O[C@@](C)(c2ccc(Cl)cc2F)O3)CC1 [Compound 259, 2-({4-[(2S)-2-(4-chloro-2-fluorophenyl)-2-methyl-2H-1,3-benzodioxol-4-yl]piperidin-1-yl}methyl)-3-(2-methoxyethyl)-5-[5-(trifluoromethyl)-4H-1,2,4-triazol-3-yl]pyridine]
20 | 0.88 nM | O=C(O)/C=C/c1nnc(CN2CCC(c3cccc(OCc4ccc(Cl)cc4F)n3)CC2)n1CC1CCCO1 (centres unmarked) [Compound 231, (E)-3-(5-((4-(6-((4-chloro-2-fluorobenzyl)oxy)pyridin-2-yl)piperidin-1-yl)methyl)-4-((tetrahydrofuran-2-yl)methyl)-4H-1,2,4-triazol-3-yl)acrylic acid]
21 | 93 nM | CC1(c2ccc(Cl)cc2F)Oc2cccc(C3CCN(Cc4nc(/C=C/C(=O)O)cn4Cc4ccno4)CC3)c2O1 (centres unmarked) [Compound 182, (E)-3-(2-((4-(2-(4-chloro-2-fluorophenyl)-2-methylbenzo[d][1,3]dioxol-4-yl)piperidin-1-yl)methyl)-1-(isoxazol-5-ylmethyl)-1H-imidazol-4-yl)acrylic acid]
22 | > 1000 nM | O=C(O)CCc1ccc(CN2CCC(c3cccc(OCc4ccc(Cl)cc4F)n3)CC2)c(=O)[nH]1 [Compound 121, 3-(5-((4-(6-((4-chloro-2-fluorobenzyl)oxy)pyridin-2-yl)piperidin-1-yl)methyl)-6-oxo-1,6-dihydropyridin-2-yl)propanoic acid]
23 | 48.9 nM | O=C(O)/C=C/c1cnc(CN2CCC(c3cccc(OCc4ccc(Cl)cc4F)n3)CC2)c(CC2CCCO2)c1 (centres unmarked) [Compound 128, (E)-3-(6-((4-(6-((4-chloro-2-fluorobenzyl)oxy)pyridin-2-yl)piperidin-1-yl)methyl)-5-((tetrahydrofuran-2-yl)methyl)pyridin-3-yl)acrylic acid]
24 | 0.012 nM | Cc1ncoc1Cn1c(/C=C/C(=O)O)cnc1CN1CCC(c2cccc3c2OC(C)(c2ccc(Cl)cc2F)O3)CC1 (centres unmarked) [Compound 190, (E)-3-(2-((4-(2-(4-chloro-2-fluorophenyl)-2-methylbenzo[d][1,3]dioxol-4-yl)piperidin-1-yl)methyl)-1-((4-methyloxazol-5-yl)methyl)-1H-imidazol-5-yl)acrylic acid]
25 | 0.26 nM | CC1(c2ccc(Cl)cc2F)Oc2cccc(C3CCN(Cc4ncc(/C=C/C(=O)O)n4CC4(F)COC4)CC3)c2O1 (centres unmarked) [Compound 157, (E)-3-(2-((4-(2-(4-chloro-2-fluorophenyl)-2-methylbenzo[d][1,3]dioxol-4-yl)piperidin-1-yl)methyl)-1-((3-fluorooxetan-3-yl)methyl)-1H-imidazol-5-yl)acrylic acid]

Row | Structure (SMILES) | EC50
26 | CC1(c2ccc(Cl)cc2F)Oc2cccc(C3CCN(Cc4ncc(/C=C/C(=O)O)n4CCOC4CC4)CC3)c2O1 (centres unmarked) [Compound 201, (E)-3-(2-((4-(2-(4-chloro-2-fluorophenyl)-2-methylbenzo[d][1,3]dioxol-4-yl)piperidin-1-yl)methyl)-1-(2-cyclopropoxyethyl)-1H-imidazol-5-yl)acrylic acid] | 0.034 nM
